Experimental data reported in patent US20040076590A1, “Antibacterial toothpaste and mouthwash formulations” (priority 2002, published 2004).

Columns and labels:
[1] = system: Stearns strain of B. anthracis; type: cell-based, Bacillus anthracis
[2] = system: Ames strain of B. anthracis; type: cell-based, Bacillus anthracis
[3] = system: Six strains of Bacillus species; assay: Nathans Agar Well Diffusion technique, 3 replicate assays; type: cell-based; details: for average zone of inhibition: average over Bacillus strains tested
E. faecium = assay: d-limonene inoculation assay (phenol-coefficient), subculture at 24/48/72 hr; type: cell-based, Enterococcus faecium; set-up: key: NG = no growth; details: >10^5 CFU/ml in 2 ml d-limonene
S. epidermidis = assay: as above; type: cell-based, Staphylococcus epidermidis; set-up: key: NG = no growth; details: >10^5 CFU/ml in 2 ml d-limonene
Streptococcus mutans = type: cell-based
Ent. cloacae = type: cell-based, Enterobacter cloacae; set-up: key: NG = no growth
S. marcescens = type: cell-based, Serratia marcescens; set-up: key: NG = no growth
[4] = system: other beta hemolytic streptococci; type: cell-based
S. maltophilia = type: cell-based, Stenotrophomonas maltophila; set-up: key: NG = no growth
K. pneumoniae = assay: d-limonene inoculation assay (phenol-coefficient), subculture at 24/48/72 hr; type: cell-based, Klebsiella pneumoniae; set-up: key: NG = no growth; details: >10^5 CFU/ml in 2 ml d-limonene
S. aureus = assay: as above; type: cell-based, Staphylococcus aureus; set-up: key: NG = no growth; details: >10^5 CFU/ml in 2 ml d-limonene
E. coli = assay: as above; type: cell-based, Escherichia coli; set-up: key: NG = no growth; details: >10^5 CFU/ml in 2 ml d-limonene
P. aeruginosa = assay: as above; type: cell-based, Pseudomonas aeruginosa; set-up: key: NG = no growth; details: >10^5 CFU/ml in 2 ml d-limonene
E. faecalis = assay: as above; type: cell-based, Enterococcus faecalis; set-up: key: NG = no growth; details: >10^5 CFU/ml in 2 ml d-limonene
Streptococcus pyogenes = type: cell-based
Ac. baum/haemo = assay: d-limonene inoculation assay (phenol-coefficient), subculture at 24/48/72 hr; type: cell-based, Acinetobacter baummii/haemolyticus; set-up: key: NG = no growth; details: >10^5 CFU/ml in 2 ml d-limonene

Compound: O=[N+]([O-])[O-].[Ag+] [AgNO3, silver nitrate]
- average inhibition zone [1]: 18 mm
- zone of inhibition [2]: 16 mm
- average zone of inhibition [3]: 16 mm

Compound: C/C(=C\C(=O)OCCCCCCCCC(=O)O)C[C@@H]1OC[C@H](C[C@@H]2O[C@H]2[C@@H](C)[C@H](C)O)[C@@H](O)[C@H]1O [Bactroban]
- average inhibition zone [1]: 45 mm
- susceptibility of the strain to the product [1]: susceptible
- susceptibility of the strain to the product [2]: susceptible
- zone of inhibition [2]: 35 mm
- average zone of inhibition [3]: 46 mm

Compound: NC(=O)N/N=C/c1ccc([N+](=O)[O-])o1 [Furacin, nitrofurazone]
- average inhibition zone [1]: 33 mm
- average zone of inhibition [3]: 35 mm

Compound: OCl [NaOCl, sodium hypochlorite]
- susceptibility of the strain to the product [1]: susceptible to all products tested except
- zone of inhibition [2]: no zones of inhibition
- average zone size ([3]; only inhibited P. polymyxa, B. sphaericus and B. cereus): 16 mm

Compound: C=C(C)[C@H]1CC=C(C)CC1 [d-limonene]
- average inhibition zone [1]: 30 mm
- Growth at 24 hr (E. faecium; 24 hr): NG
- Growth at 48 hr (E. faecium; 48 hr): NG
- Growth at 72 hr (E. faecium; 72 hr): NG
- Growth at 24 hr (S. epidermidis; 24 hr): NG
- Growth at 48 hr (S. epidermidis; 48 hr): NG
- Growth at 72 hr (S. epidermidis; 72 hr): NG
- eradication of the pathogen (Streptococcus mutans): effective in eradicating
- Growth at 24 hr (Ent. cloacae; 24 hr): NG
- Growth at 48 hr (Ent. cloacae; 48 hr): NG
- Growth at 72 hr (Ent. cloacae; 72 hr): NG
- Growth at 24 hr (S. marcescens; 24 hr): NG*
- Growth at 48 hr (S. marcescens; 48 hr): NG
- Growth at 72 hr (S. marcescens; 72 hr): NG
- eradication of the pathogen [4]: effective in eradicating
- Growth at 24 hr (S. maltophilia; 24 hr): NG
- Growth at 48 hr (S. maltophilia; 48 hr): NG
- Growth at 72 hr (S. maltophilia; 72 hr): NG
- Growth at 24 hr (K. pneumoniae; 24 hr): NG
- Growth at 48 hr (K. pneumoniae; 48 hr): NG
- Growth at 72 hr (K. pneumoniae; 72 hr): NG
- Growth at 24 hr (S. aureus; 24 hr): NG*
- Growth at 48 hr (S. aureus; 48 hr): NG
- Growth at 72 hr (S. aureus; 72 hr): NG
- Growth at 24 hr (E. coli; 24 hr): NG
- Growth at 48 hr (E. coli; 48 hr): NG
- Growth at 72 hr (E. coli; 72 hr): NG
- Growth at 24 hr (P. aeruginosa; 24 hr): NG
- Growth at 48 hr (P. aeruginosa; 48 hr): NG
- Growth at 72 hr (P. aeruginosa; 72 hr): NG
- Growth at 24 hr (E. faecalis; 24 hr): NG
- Growth at 48 hr (E. faecalis; 48 hr): NG
- Growth at 72 hr (E. faecalis; 72 hr): NG
- eradication of the pathogen (Streptococcus pyogenes): effective in eradicating
- zone of inhibition [2]: 21 mm
- average zone of inhibition [3]: 21 mm
- Growth at 24 hr (Ac. baum/haemo; 24 hr): NG
- Growth at 48 hr (Ac. baum/haemo; 48 hr): NG
- Growth at 72 hr (Ac. baum/haemo; 72 hr): NG

Compound: NCc1ccc(S(N)(=O)=O)cc1 [mafenide acetate]
- average inhibition zone [1]: 38 mm
- susceptibility of the strain to the product [1]: susceptible
- susceptibility of the strain to the product [2]: susceptible
- zone of inhibition [2]: 34 mm
- average zone of inhibition [3]: 36 mm
